In this experiment the test system is Culex quinquefasciatus mosquito larvae. Briefly: whole plant or invertebrate. In kind it is in vivo. The source says: FIG. 5 depicts a graph of the percentage of mosquito larvae death as a function of time for the different zein-silver particle solutions. This graph includes the results from five (5) trials with twenty (20) 3rd instar or 4th instar larvae. The Y axis presents the percentage death (Lethal %). The X axis presents the time after treatment in hours. Circles represent 100 ppm zein-silver particles; triangles represent 1 ppm zein-silver particles; diamonds represent 0.1 ppm zein-silver particles.
The larvicidal effect of the zein-silver particles prepared above was tested on Culex quinquefasciatus mosquito species.

Usually mortality stands for the share of the test organisms that died. For `OCC(O)CO` [Glycerol, glycerol], the mortality at 0.2 ppm (Culex quinquefasciatus, 40 h, read-out: Larval Mortality (%)) turned out to be 0%.

On to `[BH4-].[Na+]` [sodium borohydride], for which the killing of larvae (0.2 ppm, after 90 hours) came out at 8%.

The values are drawn from patent US20230103237A1, “BIODEGRADABLE PARTICLES AND BIODEGRADABLE PARTICLES IN CONTACT WITH ACTIVE INGREDIENTS” (The United States of America, as represented by the …, priority 2021, published 2023).
